Patent US9757375B2, “Compounds that inhibit human DNA ligases and methods of treating cancer” (University of Maryland, Baltimore, priority 2007, dated 2017)

Experiments:
T4 DNA ligase = biological target: T1, T4 DNA ligase (Enterobacteria phage T4, UniProt P00970); test: Radioactive gel-based DNA ligation assay; type: biochemical, bacteriophage T4; details: FIG. 2B
T1 construct: purchased NEB
T1 sequence (P00970 1-487): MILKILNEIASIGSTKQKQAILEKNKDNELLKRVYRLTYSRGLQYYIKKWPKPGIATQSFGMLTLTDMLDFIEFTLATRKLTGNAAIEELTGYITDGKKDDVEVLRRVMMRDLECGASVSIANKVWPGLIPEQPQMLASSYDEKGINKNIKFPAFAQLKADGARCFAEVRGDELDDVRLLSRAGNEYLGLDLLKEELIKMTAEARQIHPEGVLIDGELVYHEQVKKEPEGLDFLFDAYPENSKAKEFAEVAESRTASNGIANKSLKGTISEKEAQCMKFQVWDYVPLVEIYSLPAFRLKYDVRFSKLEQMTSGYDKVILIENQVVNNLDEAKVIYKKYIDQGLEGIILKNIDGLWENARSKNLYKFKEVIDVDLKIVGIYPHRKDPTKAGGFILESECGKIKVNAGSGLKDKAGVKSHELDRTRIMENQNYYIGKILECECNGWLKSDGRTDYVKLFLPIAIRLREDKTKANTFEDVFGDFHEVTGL
Experimental: A radioactive gel-based DNA ligation assay was performed as previously described (22). A 25-mer (5′-CGCCAGGGTTTTCCCAGTCACGACC-3′), and a 5′-[^32P] end-labeled 18-mer (5′-GTA AAA CGA CGG CCA GTG-3′) were annealed to a complementary 44-mer oligonucleotide, generating a linear duplex with a central nick. DNA joining reactions (30 μL) containing 0.5 pmol of labeled DNA substrate, and hLigI (0.02 pmol), hLigIIIβ (0.02 pmol), hLigIV/XRCC4 (0.1 pmol), or T4 DNA ligase (0.02 pmol) in ligation buffer were incubated in the absence or presence of ligase inhibitors at 25° C. for 30 min.
The effect of Compounds 67, 82 and 189 on DNA joining by human DNA ligases I, III and IV and T4 DNA ligase was determined. The IC50 values determined for Compounds 67, 82 and 189 using the fluorescence-based DNA joining assay (22) are shown for each of the DNA ligases. The effect of Compounds 67, 82 and 189 on DNA joining by human DNA ligases I, III and IV and T4 DNA ligase was determined using the radioactive gel-based assay (24). Representative gels of DNA ligation assays. The results of three independent experiments are shown graphically.

[1] = test system: Human DNA ligases I, III and IV and T4 DNA ligase; test: Step 1 of the ligation reaction: ligase-AMP complex formation with [α32P] ATP; type: biochemical; details: for inhibition of the first step of the ligation reaction (ligase-AMP formation): 100 μM, FIG. 3A
Experimental: Human DNA ligases I, III and IV and T4 DNA ligase were incubated with [α^32P] ATP in the absence or presence of compounds 67, 82 and 189 (100 μM). After separation by SDS-PAGE, the labeled ligase-AMP complex was detected by phosphorimaging.

hLigIV/XRCC4 = hLigIV/XRCC4 (Homo sapiens, UniProt P49917); test: Radioactive gel-based DNA ligation assay; type: biochemical; parameters: concentration or dose not given beside the values
HCT116 and MCF10A cells = test: Screen for potentiation of DNA damaging agents, cell line not stated with the result; type: cell-based, human; details: for radiosensitizer activity / synergy with PARP inhibitors / enhancement of the cytostatic effect of MMS: 50 μM; for radiosensitizer activity: 2 gray of ionizing radiation; for synergy with PARP inhibitors: 3 AB 2 mM; for cell survival: sensitivity to DNA damaging agent (IR, MMS): cell line not stated; for enhancement of the cytostatic effect of MMS: MMS 100 μM
Text: The 192 human DNA ligase inhibitors were screened in parallel for effects on proliferation and the ability to potentiate the effects of several DNA damaging agents using two cell human lines, a colon cancer line HCT116 and a normal breast epithelial cell line MCF10A using a Biomek FX Laboratory Automation Workstation as described (23). The DNA damaging agents used, methyl methanesulfonate (MMS), camptothecin, cis-platinum, 3 aminobenzamide and ionizing radiation, are representatives of classes of agents used to treat cancer. Briefly, HCT116 and MCF10A cells were plated in 96 well plates such that the cultures were about 80% confluent after 5 days incubation. Compounds were added to the cultures at either 15 μM or 50 μM 1 day after plating. After incubation for 3 days, cell lysed in a solution containing 1.2% Igepal CA-630 and SYBR green that stains DNA (1:1000, Molecular Probes, Eugene, Oreg.). Subsequently, fluorescence was measured per well. The studies with DNA damaging agents were performed as follows. […] For ionizing radiation, cells were pre-incubated with the compounds at 50 μM for 1 hour prior to exposure to 2 gray of ionizing radiation. Cultures were incubated for 3 days and then treated as above.

hLigIIIβ = biological target: T2, hLigIIIβ (Homo sapiens, UniProt P49916); test: Radioactive gel-based DNA ligation assay; type: biochemical; details: grades ±, Ø (key not given)
T2 sequence (P49916 1-862 isoform P49916-4): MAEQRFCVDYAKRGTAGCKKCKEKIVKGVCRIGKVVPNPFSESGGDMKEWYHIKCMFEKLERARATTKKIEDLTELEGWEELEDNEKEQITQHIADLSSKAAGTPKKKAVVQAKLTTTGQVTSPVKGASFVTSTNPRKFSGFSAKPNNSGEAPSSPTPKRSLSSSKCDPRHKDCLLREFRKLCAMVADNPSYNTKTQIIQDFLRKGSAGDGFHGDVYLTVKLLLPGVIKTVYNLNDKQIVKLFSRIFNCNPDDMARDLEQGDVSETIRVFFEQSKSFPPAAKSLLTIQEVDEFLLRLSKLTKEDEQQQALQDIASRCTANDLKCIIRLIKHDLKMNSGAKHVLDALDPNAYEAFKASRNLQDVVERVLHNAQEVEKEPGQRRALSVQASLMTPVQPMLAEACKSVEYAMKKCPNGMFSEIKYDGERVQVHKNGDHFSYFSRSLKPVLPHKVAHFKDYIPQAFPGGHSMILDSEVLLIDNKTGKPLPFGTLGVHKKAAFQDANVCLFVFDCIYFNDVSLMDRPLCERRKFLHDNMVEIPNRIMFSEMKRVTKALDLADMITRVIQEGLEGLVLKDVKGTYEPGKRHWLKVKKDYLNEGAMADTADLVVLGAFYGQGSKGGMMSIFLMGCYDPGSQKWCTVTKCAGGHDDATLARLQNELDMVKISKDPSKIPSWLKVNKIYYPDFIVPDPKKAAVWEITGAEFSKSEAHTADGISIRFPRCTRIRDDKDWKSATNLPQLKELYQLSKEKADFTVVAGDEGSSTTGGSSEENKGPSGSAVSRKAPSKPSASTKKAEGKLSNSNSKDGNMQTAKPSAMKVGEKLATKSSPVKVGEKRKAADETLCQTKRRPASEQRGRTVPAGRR

Chain of hLigIV/XRCC4 (P49917 whole entry): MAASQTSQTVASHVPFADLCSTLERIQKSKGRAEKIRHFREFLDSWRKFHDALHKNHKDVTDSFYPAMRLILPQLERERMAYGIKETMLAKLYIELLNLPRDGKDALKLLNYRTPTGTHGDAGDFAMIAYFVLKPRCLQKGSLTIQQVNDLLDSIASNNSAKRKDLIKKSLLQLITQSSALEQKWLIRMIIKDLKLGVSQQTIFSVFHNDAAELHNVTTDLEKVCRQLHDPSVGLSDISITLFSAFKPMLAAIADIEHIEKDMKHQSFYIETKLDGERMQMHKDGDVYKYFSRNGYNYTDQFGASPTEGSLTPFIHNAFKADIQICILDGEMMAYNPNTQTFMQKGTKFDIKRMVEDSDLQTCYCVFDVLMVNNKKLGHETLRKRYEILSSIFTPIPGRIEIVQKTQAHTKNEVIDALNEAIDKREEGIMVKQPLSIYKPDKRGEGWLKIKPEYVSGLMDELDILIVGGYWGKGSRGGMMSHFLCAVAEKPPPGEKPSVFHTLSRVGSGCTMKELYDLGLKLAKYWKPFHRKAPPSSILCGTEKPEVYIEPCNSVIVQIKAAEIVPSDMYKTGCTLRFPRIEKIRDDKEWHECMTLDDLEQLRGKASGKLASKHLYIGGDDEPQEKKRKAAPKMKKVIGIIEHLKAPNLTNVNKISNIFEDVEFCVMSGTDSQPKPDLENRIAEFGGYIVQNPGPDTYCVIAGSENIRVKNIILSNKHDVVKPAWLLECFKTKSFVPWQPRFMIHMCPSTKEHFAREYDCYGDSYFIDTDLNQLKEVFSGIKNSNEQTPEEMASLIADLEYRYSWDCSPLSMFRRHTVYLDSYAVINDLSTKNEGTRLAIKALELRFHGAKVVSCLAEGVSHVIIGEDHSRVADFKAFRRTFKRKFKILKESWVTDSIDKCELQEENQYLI
Chain of hLigIV/XRCC4 (Q13426 whole entry partner): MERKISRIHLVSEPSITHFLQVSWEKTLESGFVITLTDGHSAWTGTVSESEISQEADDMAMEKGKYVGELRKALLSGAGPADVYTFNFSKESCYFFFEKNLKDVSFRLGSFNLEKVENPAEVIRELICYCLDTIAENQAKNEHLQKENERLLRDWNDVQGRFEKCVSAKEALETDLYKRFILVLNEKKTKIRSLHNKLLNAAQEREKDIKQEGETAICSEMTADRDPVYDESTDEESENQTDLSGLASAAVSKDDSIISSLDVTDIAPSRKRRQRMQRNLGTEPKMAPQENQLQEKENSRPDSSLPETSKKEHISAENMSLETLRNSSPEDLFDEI

SMILES | inhibition of DNA joining by T4 DNA ligase (T4 DNA ligase) | inhibition of the first step of the ligation reaction (ligase-AMP formation) [1] | % activity Inhibition hLigIV gel (hLigIV/XRCC4) [%] | cell survival: sensitivity to DNA damaging agent (IR, MMS) (HCT116 and MCF10A cells) | % activity Inhibition hLigIII gel (hLigIIIβ) | further results
O=c1[nH]ncc(N/N=C\c2ccc(O)c([N+](=O)[O-])c2)c1Cl [Compound 82] | not significantly inhibited | did not inhibit | – | – | – | –
O=C(O)CSc1cc(Cl)c2nonc2c1[N+](=O)[O-] [Compound 64] | – | – | 66 | IR sensitive | – | Mechanism: ligation step inhibited (1st step) ([1]; Table 5A): 1st step; radiosensitizer activity (HCT116 and MCF10A cells): act as radiosensitizers; synergy with PARP inhibitors (HCT116 and MCF10A cells): act synergistically with PARP inhibitors
O=C(Cn1cnc([N+](=O)[O-])n1)N/N=C/c1ccc(O)cc1O [Compound 151] | – | – | – | MMS sensitive | Ø | radiosensitizer activity (HCT116 and MCF10A cells): act as radiosensitizers; enhancement of the cytostatic effect of MMS (HCT116 and MCF10A cells): enhance the cytostatic effect of MMS
Nc1nc(S)nc(O)c1/N=C/c1ccccc1 [Compound 189] | not significantly inhibited | did not inhibit | 80 | IR sensitive | – | –
Cc1c(Br)cc(NCC(=O)N/N=C\c2cc([N+](=O)[O-])ccc2O)cc1Br [Compound 67] | not significantly inhibited | did not inhibit | – | IR, MMS sensitive | – | synergy with PARP inhibitors (HCT116 and MCF10A cells): act synergistically with PARP inhibitors; enhancement of the cytostatic effect of MMS (HCT116 and MCF10A cells): enhance the cytostatic effect of MMS
Cc1oc(C(=O)O)cc1CSCc1cc(C(=O)O)c(C)o1 [Compound 197] | – | – | 100 | – | – | –
C/C(O)=C1/C(=O)N(c2nc3ccccc3s2)N=C1c1ccccc1 [Compound 43] | – | – | – | – | Ø | –
CS(=O)(=O)NNC(=O)C(=O)NNc1ccccc1 [Compound 184] | – | – | – | – | Ø | –
COc1ccc(-c2cnc3c(O)nc(O)nc3n2)cc1 [Compound 190] | – | – | – | – | Ø | –
